Laboratory results: patent US20170038365A1, “SMALL MOLECULE INHIBITORS OF 8-OXOGUANINE DNA GLYCOSYLASE-1 (OGG1)” (OREGON HEALTH & SCIENCE UNIVERSITY, priority 2015, published 2017)

Key:
OGG1 [1] = molecular target: T1, OGG1 (Homo sapiens, UniProt O15527); assay: fluorescence-based OGG1 activity assay (TAMRA/BHQ2 8-oxo-Gua substrate); type: biochemical; conditions: read-out: IC50 (OGG1 inhibition)
T1 construct: His tag; made in house; host or cells: bacterial culture (LB media, IPTG induction)
Description: The OGG1 activity assay utilized a 17-mer oligodeoxynucleotide that contained an 8-oxo-Gua positioned 6 deoxynucleotides downstream of a 5′-TAMRA fluorophore and a complementary DNA strand that contained a 3′-Black Hole Quencher 2 (BHQ2) (FIG. 1). […] Therefore, inhibitors of OGG1 activity would be expected to result in a weaker fluorescence signal over time compared to a no inhibitor control.
The fluorescence-based assay outlined in FIG. 2A was performed in black, low volume 384-well plates with a final volume of 10 μL per well. […] Plates were incubated for 30 min at 37° C. and TAMRA fluorescence in each well was measured using the Biotek Synergy 4 platereader (Filters=Ex 528/20, Em 600/40. Mirror=Top 570 nm with polarizer). Background-subtracted fluorescence values were calculated for each well and any compound that had ≧40% decrease in fluorescence compared to the no inhibitor control was identified as a hit. […]
Assays to calculate IC50 values of OGG1, NEIL1, and NTH1 were fundamentally similar to the high-throughput screen except that the step for the addition of drug differed and a lower enzyme concentration was used. […] Plates were incubated at 37° C. for 40 min (OGG1), 5 min (NEIL1), and 10 min (NTH1), followed by the measurement of TAMRA fluorescence. […]

OGG1 [2] = molecular target: T1, OGG1; assay: OGG1 AP lyase activity on AP site-containing substrate (gel); type: biochemical; conditions: 10 μM compound, compared to no inhibitor control
Description: FIG. 5A is a bar graph of OGG1 lyase activity on a substrate containing an AP site. The substrate was incubated without OGG1 (No Enz), with OGG1 (No Inh), or with OGG1+10 μM compound. The top band in each gel corresponds to uncleaved substrate and the bottom band is cleaved product. Mean percent cleavage compared to the no inhibitor control (% Activity) was plotted for three independent experiments. The uncertainties are standard deviations.
(§1) Hydrazides Inhibit the Glycosylase and Lyase Activities of OGG1. To verify the results of the fluorescence-based assay, gel-based assays were performed to detect OGG1-mediated strand cleavage of an 8-oxo-Gua-containing substrate at eight different inhibitor concentrations (FIG. 4). […] There are at least three possibilities that could account for how these molecules inhibit DNA strand cleavage by OGG1. […] This assay used γ-irradiated calf thymus DNA as a substrate and measured the number of free 8-oxo-Gua and FapyGua in solution released by OGG1. […]
(§2) Gel-based assays were performed by combining 4 μL of 2.5×OGG1 (62.5 nM) with 1 μL 10× inhibitor or buffer. […] Samples were analyzed by electrophoresis on a 15% polyacrylamide gel containing 8 M urea and bands were visualized by a FluorChem M imager (Protein Simple). Band intensities were quantified using the Image Studio Lite Software (LI-COR).

OGG1 [3] = molecular target: T1, OGG1; assay: OGG1 glycosylase activity on γ-irradiated calf thymus DNA by GC-MS/MS; type: biochemical; conditions: 0.1 μmol inhibitor
Description: FIG. 5B is a bar graph of OGG1 glycosylase activity measured on irradiated calf thymus DNA. The number of excised 8-oxo-Gua per 10^6 DNA bases was measured by GC-MS/MS. Graph plots equal the mean of three independent experiments. The uncertainties are standard deviations.
FIG. 5C is a bar graph of OGG1 glycosylase activity measured on irradiated calf thymus DNA. The number of excised FapyGua per 10^6 DNA bases was measured by GC-MS/MS. Graph plots equal the mean of three independent experiments. The uncertainties are standard deviations.
as §1
The enzymatic activities of OGG1, NEIL1 and NTH1 were measured using gas chromatography/isotope-dilution tandem mass spectrometry (GC-MS/MS) and calf thymus DNA samples γ-irradiated at 20 Gy as described in Jaruga et al 2008 infra and Reddy et al, 2013 infra. […]

OGG1 [4] = molecular target: T1, OGG1; assay: sodium cyanoborohydride trapping assay of OGG1 and substrate; type: biochemical; conditions: 10 μM inhibitor, 1 mM NaBH3CN
Description: FIG. 6B is an image and bar graph of Sodium cyanoborohydride trapping of OGG1 and substrate. OGG1 was incubated with 8-oxo-Gua- (top gel), AP site- (bottom gel) or U-containing (last lane in each gel) substrates with or without 10 μM inhibitor or INH. Reactions were performed in the presence of 1 mM NaBH3CN. Top band in each gel corresponds to OGG1 trapped to substrate and the bottom band is untrapped substrate. Bands were quantified in each gel and the percent trapped compared to the no inhibitor control was plotted for each compound. Graph plots equal the mean of three independent experiments. The uncertainties are standard deviations.
FIG. 11 is an image and plot of a dose response for O8 trapping. […] Bands were quantified in each gel and the percent trapped compared to the no inhibitor control (% Trapped) was plotted for each compound. […] Mean T50 values in μM±std. dev. were calculated as described above.
To test whether these inhibitors interfere with catalysis, trapping experiments were conducted by carrying out the OGG1 activity assay in the presence of sodium cyanoborohydride. […] These values are slightly higher, but still very close to the calculated IC50 value for this inhibitor (Table 1).
A total of 4 μL of 2.5×OGG1 (125 nM) was mixed with 1 μL of 10× inhibitor. […] Band intensities were quantified using the Image Studio Lite Software. […]

OGG1 [5] = molecular target: T1, OGG1; assay: gel-based OGG1 cleavage assay on 8-oxo-Gua-containing substrate; type: biochemical; conditions: eight inhibitor concentrations 0.008-25 μM
Description: FIG. 4A is an image and plot showing a gel-based OGG1 activity assay of compound O8. 8-oxo-Gua-containing substrate was incubated without OGG1 (No Enz), with OGG1 (No Inh), or with OGG1+8 different concentrations (25, 8, 2.5, 0.8, 0.25, 0.08, 0.025, 0.008 μM) of inhibitors. The top band in the gel corresponds to uncleaved substrate and the bottom band is cleaved product. The Y-axis on each graph equals the percent substrate cleavage compared to the no inhibitor control (% Activity). Data points equal the mean of three independent experiments. The uncertainties are standard deviations.
Hydrazides Inhibit the Glycosylase and Lyase Activities of OGG1. To verify the results of the fluorescence-based assay, gel-based assays were performed to detect OGG1-mediated strand cleavage of an 8-oxo-Gua-containing substrate at eight different inhibitor concentrations (FIG. 4). […] This assay used γ-irradiated calf thymus DNA as a substrate and measured the number of free 8-oxo-Gua and FapyGua in solution released by OGG1. […]
as §2

[6] = molecular target: OGG1 (8-oxoguanine DNA glycosylase-1) (Homo sapiens, UniProt O15527 O15527:1-345); assay: EMSA; 50 nM OGG1, 25 nM DNA, on ice 5 min; also trapped by NaBH3CN (FIG. 6B); binding abrogated by ATA, unaffected by the five inhibitors; conditions: tags: His-tag; expressed in bacteria, Ni-NTA purified; label: 5'-TAMRA; 3'-BHQ2 on complement in fluorescence assay
Chain of OGG1 (8-oxoguanine DNA glycosylase-1) (O15527 whole entry, one chain of several): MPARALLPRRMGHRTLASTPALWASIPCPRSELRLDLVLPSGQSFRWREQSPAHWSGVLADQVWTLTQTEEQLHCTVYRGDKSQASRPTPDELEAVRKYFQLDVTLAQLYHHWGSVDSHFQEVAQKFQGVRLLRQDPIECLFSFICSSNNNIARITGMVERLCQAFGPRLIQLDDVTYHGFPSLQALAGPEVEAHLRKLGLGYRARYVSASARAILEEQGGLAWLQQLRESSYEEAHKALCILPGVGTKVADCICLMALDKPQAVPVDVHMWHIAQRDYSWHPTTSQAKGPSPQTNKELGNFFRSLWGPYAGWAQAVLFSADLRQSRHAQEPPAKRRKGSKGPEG
Description: To test whether these inhibitors affected OGG1 binding to an 8-oxo-Gua or AP site, gel shift assays were performed.
All experiments were performed on ice with pre-cooled reagents. […] 5 μL 2× substrate (50 nM) was added, mixed and kept on ice for 5 min. The reaction was quenched with 10 μL ice-cold 30% glycerol and loaded onto a pre-cooled 8% native gel containing 30% glycerol. The gel was run at 4° C. for 1 h (75 V) and bands were visualized by a FluorChem M imager. Band intensities were quantified using the Image Studio Lite Software.

T1 sequence (O15527 whole entry): as the sequence (O15527 whole entry, one chain of several) above

Row | IC50 (OGG1 [1]) [nM] | effect on OGG1-induced cleavage of an AP site (AP lyase activity) (OGG1 [2]) | OGG1-mediated excision of 8-oxo-Gua and FapyGua (OGG1 [3]) | Molecule | further results
1 | > 50000 |  |  | NC(=O)c1cc2ccccc2cc1O [3-hydroxy-2-naphthamide] | 
2 | 75 |  |  | NNC(=O)c1cc2ccccc2cc1O [3-hydroxy-2-naphthohudrazide] | 
3 |  | no effect | little to no decrease | Cc1cc(C(=O)NNCc2ccccc2)no1 [ICD, isocarboxazid] | 
4 |  | no effect | little to no decrease | NNC(=O)c1ccncc1 [INH, isoniazid] | effect on trapping of OGG1 (Schiff base formation) on 8-oxo-Gua- and AP site-containing substrates (OGG1 [4]): no effect; inhibition of OGG1-mediated strand cleavage of 8-oxo-Gua-containing substrate (OGG1 [5]): no inhibition
5 |  |  |  | 8-oxo-Gua 17-mer duplex (dsDNA, n is 8-oxo-guanine; complement SEQ:2 appears printed 3'-5' [6 (8-oxo-guanine)]) DNA 1: TCACCGTCGTACGACTC DNA 2: GAGTCGTACGACGGTGA | binding result [6]: binds
